Reference: publication PMC7411887, “New Paracyclophanylthiazoles with Anti-Leukemia Activity: Design, Synthesis, Molecular Docking, and Mechanistic Studies” (Molecules, 2020)
Values joined by “and” are separate entries in the source; they are usually repeats but may differ in a detail not shown here. Equal values may be shown once. “Also recorded” adds a separate entry of the source.

Columns and labels:
Bcl-2 = Bcl-2 assay on leukemia SR cell line; assay type: cell-based, human; conditions: for Bcl2 Concentration: ± SD
Protocol: 17. Empty the contents of the wells and wash by adding 400 μL of wash solution to every
18. Repeat the wash 4 more times for a total of 5 washes.
19. After the final wash, empty or aspirate the wells and firmly tap the plate on a lint free
paper towel to remove any remaining wash buffer.
20. Pipet 100 μL of Substrate Solution into each well.
21. Incubate for 30 minutes at room temperature on a plate shaker at ~500 rpm.
1. Mix all reagents thoroughly without foaming before use.
3. Take caution not to scratch the surface of the microwells.
5. Use the microwell strips immediately after washing or place upside down on a wet
absorbent paper for not longer than 15 minutes.
Prepare standard (1:2 dilution) in duplicate ranging from 32
8. Add 50 μL of diluted biotin-conjugate to all wells, including the blank wells.
10. Remove plate cover and empty the wells.
13. Remove plate cover and empty the wells.
Proceed to the next step.
available on a rotator set at 100 rpm. Avoid direct exposure to intense light.

leukemia SR cells = assay: Cell cycle analysis, propidium iodide flow cytometry; conditions: for DNA Content % %G0-G1 / DNA Content % %G2-M / DNA Content % %Pre G1 / DNA Content % %S: at IC50, 24 h
HL-60(TB) = assay: NCI single-dose screen (SRB); assay type: cell-based; conditions: Homo sapiens; Leukemia HL-60(TB); 10^−5 M; read-out: Growth inhibition percentage
Protocol: The methodology of the NCI anticancer screening was described in detail elsewhere (http://www.dtp.nci.nih.gov). […] Tested compounds were added to the culture at a single concentration (10^−5 M) and the cultures were incubated for 48 h. End-point determinations were made with a protein binding dye, SRB. Results for each tested compound were reported as the percentage growth of the treated cells when compared to the untreated control cells. The percentage growth was evaluated spectrophotometrically versus controls not treated with test agents. All experiments were repeated three times (Table 1).
Briefly, the protocol was performed on 60 human tumor cell lines derived from different nine neoplastic diseases. […] If the results obtained met selection criteria, then the compound was tested again on all 60 cell lines in 5× 10-fold dilutions with the top dose being 10^−4 M or 150 μg/mL. Detailed methods are described in the Supplementary Materials related to this article. […]
on their site (http://www.dtp.nci.nih.gov). But briefly, the protocol performed at sixty human […]
National Cancer Institute, Bethesda, USA. If the results obtained meet selection criteria, then the […]
10-4 molar or 150 μg/mL. Detailed methods are described in supplementary material related to […]
2. MTT- Cytotoxicity assay method […]
should not exceed 10^6 cells/cm2. Each test should include a blank containing complete medium […]
salt solution without phenol red and serum. Add reconstituted MTT in an amount equal to 10% of the culture medium volume.

β-tubulin = target: T1, β-tubulin (Homo sapiens, UniProt P07437); assay: Tubulin polymerization inhibition (ELISA for TUBb, SR cell line); assay type: cell-based; conditions: IC50 ± SEM
T1 construct: endogenous in cells; host or cells: leukemia SR cell line
Protocol: The in vitro kinetics of microtubule assembly was measured using an ELISA kit for TUBb (Cloud-Clone. Corp.) on the leukemia SR cell line. The compounds tested were 3a–f and colchicine. Briefly, growing cells from the SR cell line were trypsinized, counted, and seeded at the appropriate densities into 96-well microtiter plates.
4. Tubulin polymerization inhibitory activity […]
bind the biotin labeled antibody. […]
spectrophotometrically at a wavelength of 450 nm ± 10 nm. The decrease of color intensity was measured as a sign for tubulin inhibition. The results were calculated as the concentration of TUBb available for antibody reaction, and the percent inhibition of TUBb was calculated for each sample as a percent of control. In vitro kinetics of microtubule assembly was measured using ELISA kit for TUBb (Cloud-Clone. Corp.) on SR cell line. Briefly, growing cells from Leukemia SR cell lines were trypsinized, counted and seeded at the appropriate densities into 96-well microtiter plates. Cells then were incubated in a humidified atmosphere at oC for 24 h. The standards, the tested compounds, and the control colchicine were diluted to designated concentrations. On the 96-well microtiter plates standard or sample was added to each well in […] and incubated at oC for 2 h. The solution was aspirated, and […] of prepared detection reagent A was added to each well. Incubation was done at oC for 2 h. After washing […] of prepared Detection Reagent B was added and incubation was continued at oC for 30 min. Five washings were done, then […] of 3,30,5,50-tetramethylbenzidine (TMB) substrate solution was added and incubated at oC for 15-25 min. Stop solution was added in […].
Optical density (O.D.) was measured at 450 nm using micro-plate reader (Spectromax Plus 96 well plate spectrophotometer). […]
the treated cells compared to that of the untreated control cells.
5. Multidrug resistance Assay
Before adding to wells, equilibrate the SABC working solution and TMB substrate for at least 30 […]
When diluting samples and reagents, they must be mixed completely and evenly. It is recommended plotting a standard curve for each test.

T1 sequence (P07437 whole entry): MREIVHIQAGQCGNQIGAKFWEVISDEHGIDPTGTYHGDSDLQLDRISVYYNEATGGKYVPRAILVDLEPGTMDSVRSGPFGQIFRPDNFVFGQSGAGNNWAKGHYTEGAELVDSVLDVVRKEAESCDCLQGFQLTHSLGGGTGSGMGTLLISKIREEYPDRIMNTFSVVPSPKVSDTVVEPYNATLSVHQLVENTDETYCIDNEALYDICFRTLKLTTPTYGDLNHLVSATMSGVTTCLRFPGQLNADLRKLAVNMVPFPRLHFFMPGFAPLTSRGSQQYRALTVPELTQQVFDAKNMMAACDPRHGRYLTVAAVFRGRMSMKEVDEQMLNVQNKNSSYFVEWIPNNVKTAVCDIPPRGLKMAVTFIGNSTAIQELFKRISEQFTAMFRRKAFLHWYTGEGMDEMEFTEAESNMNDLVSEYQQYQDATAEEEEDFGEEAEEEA
T1 sequence (P68363 whole entry partner): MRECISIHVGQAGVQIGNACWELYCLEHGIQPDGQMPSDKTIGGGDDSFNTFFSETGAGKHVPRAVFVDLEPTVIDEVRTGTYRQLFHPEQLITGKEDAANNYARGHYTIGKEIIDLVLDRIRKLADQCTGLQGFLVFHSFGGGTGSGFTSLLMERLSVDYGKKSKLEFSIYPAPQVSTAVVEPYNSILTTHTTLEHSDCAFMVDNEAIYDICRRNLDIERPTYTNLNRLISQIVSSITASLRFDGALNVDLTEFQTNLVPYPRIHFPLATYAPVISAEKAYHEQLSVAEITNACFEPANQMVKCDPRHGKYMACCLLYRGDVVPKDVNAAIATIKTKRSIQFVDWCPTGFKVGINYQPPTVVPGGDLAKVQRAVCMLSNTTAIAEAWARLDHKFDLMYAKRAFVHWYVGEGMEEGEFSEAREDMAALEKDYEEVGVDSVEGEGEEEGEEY

| SMILES | Bcl2 Concentration (Bcl-2) | DNA Content % Comment (leukemia SR cells) | DNA Content % %G0-G1 (leukemia SR cells) | DNA Content % %G2-M (leukemia SR cells) | DNA Content % %Pre G1 (leukemia SR cells) | DNA Content % %S (leukemia SR cells) | Bcl2 Fold Change (Bcl-2; relative to control) | inhibition at 10 µM (HL-60(TB)) | IC50 (β-tubulin) | melting point |
| --- | --- | --- | --- | --- | --- | --- | --- | --- | --- | --- |
| COc1cc2c(c(OC)c1OC)-c1ccc(OC)c(=O)cc1[C@@H](NC(C)=O)CC2 [Colchicine, colchicine, reference compound] | 4.101 ± 0.1441 ng/mL | cell growth arrest (G2/M) | 26.58% | 48.15 ± 1.000 % | 36.24% | 25.27% |  |  |  |  |
| COC(=O)C=C1SC(=NNC(=O)c2cc3ccc2CCc2ccc(cc2)CC3)N(c2ccccc2)C1=O [Compound 3a] | 5.045 ± 0.1918 ng/mL | significant growth arrest at the G2/M phase; also recorded: cell growth arrest (G2/M) | 31.47% | 44.74 ± 0.1747 % | 33.71% | 23.79% | 0.59 fold | 83.6% | 4.97 ± 0.11 µM |  |
| COC(=O)C=C1SC(=NNC(=O)c2cc3ccc2CCc2ccc(cc2)CC3)N(Cc2ccccc2)C1=O [Compound 3b] |  |  |  |  |  |  |  | 105% | 8.38 ± 0.18 µM | 175 to 177 °C |
| COC(=O)C=C1SC(=Nc2cccnc2)N(NC(=O)c2cc3ccc2CCc2ccc(cc2)CC3)C1=O [Compound 3c, Methyl (E)-2-((E)-3-[2.2]paracyclophanyl)amido-4-oxo-2-(pyridin-3-ylimino)-thiazolidin-5-ylidene)acetate] |  |  |  |  |  |  |  | 48.6% | 8.38 µM and 8.28 µM | 262 to 264 °C (dec.) |
| C=CCN1C(=O)C(=CC(=O)OC)SC1=NNC(=O)c1cc2ccc1CCc1ccc(cc1)CC2 [Compound 3d] |  |  |  |  |  |  |  | 8.16% | 14.8 ± 0.32 µM | 241 to 243 °C |
| CCN1C(=O)C(=CC(=O)OC)SC1=NNC(=O)c1cc2ccc1CCc1ccc(cc1)CC2 [Compound 3e] |  |  |  |  |  |  |  | 11.6% | 6.61 ± 0.14 µM | 220 to 222 °C |
| COC(=O)/C=C1/S/C(=N/NC(=O)c2cc3ccc2CCc2ccc(cc2)CC3)N(C2CC2)C1=O [Compound 3f] |  |  |  |  |  |  |  | 26.4% |  | 180 to 182 °C |
